Results reported in patent US20240342292A1, “Compounds for the Degradation of EGFR Kinase” (BeiGene Switzerland GmbH, priority 2021, published 2024).

Key:
[1] = target: T1, L858R/T790M/C797S EGFR (Homo sapiens, UniProt P00533, C797S/L858R/T790M); experiment: EGFR degradation HTRF assay in H1975-clone #25 (LTC) cells; type: cell-based; conditions: 16h treatment; for DC50: H1975 # 25-LTC (L858R/T790M/C797S), HTRF; for Dmax: NCI-H1975, H1975 # 25-LTC (L858R/T790M/C797S), maximum percentage of degradation
T1 construct: expressed in transfected cells; host or cells: H1975 clone #25 (lentiviral over-expression, endogenous EGFR knocked out by sgRNA)
Method in brief: (§1)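 Each homozygous H1975 clone was dosed for 16 h at 37 °C with an 8-dose, 5-fold series (top 10 uM, 0.2% DMSO). An HTRF antibody pair then measured EGFR in lysates, and a sigmoidal fit of percent inhibition gave DC50.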

[2] = system: Del19/T790M/C797S EGFR; experiment: EGFR degradation HTRF assay in H1975-clone #28 (DTC) cells; type: cell-based; conditions: H1975 # 28 DTC (Del19/T790M/C797S), 16h treatment; for DC50: HTRF; for Dmax (%): maximum percentage of degradation
Method in brief: as §1

T1 sequence (P00533 25-1210 T790M/C797S/L858R): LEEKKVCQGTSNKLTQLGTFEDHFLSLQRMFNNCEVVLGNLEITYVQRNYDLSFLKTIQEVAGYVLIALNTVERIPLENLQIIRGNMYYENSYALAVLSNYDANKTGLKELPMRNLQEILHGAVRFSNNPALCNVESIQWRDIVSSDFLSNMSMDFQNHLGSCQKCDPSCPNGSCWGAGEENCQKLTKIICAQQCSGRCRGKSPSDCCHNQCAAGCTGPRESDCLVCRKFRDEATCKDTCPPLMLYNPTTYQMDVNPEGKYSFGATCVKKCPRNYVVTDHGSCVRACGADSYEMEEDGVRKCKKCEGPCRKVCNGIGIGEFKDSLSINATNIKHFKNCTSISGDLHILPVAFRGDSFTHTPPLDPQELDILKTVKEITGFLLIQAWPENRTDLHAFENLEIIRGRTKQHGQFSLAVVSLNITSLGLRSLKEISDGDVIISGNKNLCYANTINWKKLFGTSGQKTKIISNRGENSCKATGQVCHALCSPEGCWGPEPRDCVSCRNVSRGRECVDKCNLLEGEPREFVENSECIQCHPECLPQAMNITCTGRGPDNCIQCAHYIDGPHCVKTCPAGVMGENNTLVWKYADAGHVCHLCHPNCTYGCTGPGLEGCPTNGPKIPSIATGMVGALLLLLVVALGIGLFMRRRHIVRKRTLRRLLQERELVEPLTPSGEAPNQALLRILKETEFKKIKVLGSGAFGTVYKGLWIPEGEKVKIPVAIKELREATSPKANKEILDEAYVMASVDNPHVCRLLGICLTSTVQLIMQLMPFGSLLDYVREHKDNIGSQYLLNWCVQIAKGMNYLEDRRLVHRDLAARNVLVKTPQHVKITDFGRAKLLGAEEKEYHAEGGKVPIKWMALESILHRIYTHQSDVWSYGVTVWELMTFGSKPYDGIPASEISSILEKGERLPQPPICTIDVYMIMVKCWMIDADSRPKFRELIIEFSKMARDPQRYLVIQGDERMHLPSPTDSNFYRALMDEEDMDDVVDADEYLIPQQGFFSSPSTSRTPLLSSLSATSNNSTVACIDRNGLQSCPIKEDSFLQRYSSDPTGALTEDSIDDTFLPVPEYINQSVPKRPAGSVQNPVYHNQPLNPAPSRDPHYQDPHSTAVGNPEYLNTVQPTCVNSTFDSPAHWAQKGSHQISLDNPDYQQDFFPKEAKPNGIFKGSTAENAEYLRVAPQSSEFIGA

SMILES | DC50 [1] | Dmax [1] | DC50 [2] | Dmax (%) [2]
COC[C@@H]1CN(c2ccc3c(c2)N2C[C@H](C)CCCOc4c(cnn4C)-c4cc(cc(C)n4)C(=O)/N=C/2N3)CCN1C1CCN(c2cc(F)c([C@H]3CCC(=O)NC3=O)c(F)c2)CC1 [Example 397, (R)-3-(2,6-difluoro-4-(4-((S)-2-(methoxymethyl)-4-((R,E)-1^1,2^6,7-trimethyl-3-oxo-5^2,5^3-dihydro-1^1H,5^1H-1i-oxa-4-aza-5(2,1)-benzo[d]imidazola-2(2,4)-pyridina-1(4,5)-pyrazolacycloundecaphane-5-yl)piperazin-1-yl)piperidin-1-yl)phenyl)piperidine-2,6-dione] | 2.01 nM | 88.3% | 2.13 nM | 76.68%
Cc1cc2cc(n1)-c1cnn(C)c1OCCC[C@@H](C)CN1/C(=N/C2=O)Nc2ccc(N3C[C@@H](C)N(C4CCN(c5cc(F)c([C@H]6CCC(=O)NC6=O)c(F)c5)CC4)C[C@H]3C)cc21 [Example 398, (R)-3-(4-(4-((2R,5R)-2,5-dimethyl-4-((R,E)-1^1,2^6,7-trimethyl-3-oxo-5^2,53-dihydro-1^1H,5^1H-11-oxa-4-aza-5(2,1)-benzo[d]imidazola-2(2,4)-pyridina-1(4,5)-pyrazolacycloundecaphane-5^6-yl)piperazin-1-yl)piperidin-1-yl)-2,6-difluorophenyl)piperidine-2,6-dione] | 4.7 nM | 90.3% | 4.5 nM | 72.53%
Cc1cc2cc(n1)-c1cnn(C)c1OCCC[C@@H](C)CN1/C(=N/C2=O)Nc2ccc(N3CCC(NC4CCN(c5cc(F)c([C@H]6CCC(=O)NC6=O)c(F)c5)CC4)CC3)cc21 [Example 401, (R)-3-(2,6-difluoro-4-(4-((1-((R,E)-1^1,2^6,7-trimethyl-3-oxo-5^2,5^3-dihydro-1^1H,5^1H-11-oxa-4-aza-5(2,1)-benzo[d]imidazola-2(2,4)-pyridina-1(4,5)-pyrazolacycloundecaphane-5^6-yl)piperidin-4-yl)amino)piperidin-1-yl)phenyl)piperidine-2,6-dione] | 1.37 nM | 81.1% | 3.18 nM | 70.19%
Cc1cc2cc(n1)-c1cnn(C)c1OCCC[C@@H](C)CN1/C(=N/C2=O)Nc2ccc(N3CCC(C(=O)N4CC(Oc5cc(F)c([C@H]6CCC(=O)NC6=O)c(F)c5)C4)CC3)cc21 [Example 403, (R)-3-(2,6-difluoro-4-((1-(1-((R,E)-1^1,2^6,7-trimethyl-3-oxo-5^2,5^3-dihydro-1^1H,5^1H-11-oxa-4-aza-5(2,1)-benzo[d]imidazola-2(2,4)-pyridina-1(4,5)-pyrazolacycloundecaphane-5^6-yl)piperidine-4-carbonyl)azetidin-3-yl)oxy)phenyl)piperidine-2,6-dione] | 1.07 nM | 87.5% | 0.857 nM | 82.98%
Cc1cc2cc(n1)-c1cnn(C)c1OCCC[C@@H](C)CN1/C(=N/C2=O)Nc2ccc(N3CC4(CCN(CC5CN(c6cc(F)c([C@H]7CCC(=O)NC7=O)c(F)c6)C5)CC4)CC3=O)cc21 [Example 406, (R)-3-(2,6-difluoro-4-(3-((3-oxo-2-((R,E)-1^1,2^6,7-trimethyl-3-oxo-5^2,5^3-dihydro-1^1H,5^1H-11-oxa-4-aza-5(2,1)-benzo[d]imidazola-2(2,4)-pyridina-1(4,5)-pyrazolacycloundecaphane-5^6-yl)-2,8-diazaspiro[4.5]decan-8-yl)methyl)azetidin-1-yl)phenyl)piperidine-2,6-dione] | 1.65 nM | 89.6% | 1.09 nM | 85.15%
Cc1cc2cc(n1)-c1cnn(C)c1OCCC[C@@H](C)CN1/C(=N/C2=O)Nc2ccc(N3CCN(CCN(C)c4cc(F)c([C@H]5CCC(=O)NC5=O)c(F)c4)CC3)cc21 [Example 407, (R)-3-(2,6-difluoro-4-(methyl(2-(4-((R,E)-1^1,2^6,7-trimethyl-3-oxo-5^2,5^3-dihydro-1^1H,5^1H-11-oxa-4-aza-5(2,1)-benzo[d]imidazola-2(2,4)-pyridina-1(4,5)-pyrazolacycloundecaphane-5^6-yl)piperazin-1-yl)ethyl)amino)phenyl)piperidine-2,6-dione] | 2.29 nM | 87.9% | 2.09 nM | 78.49%

The next molecules have a lower DC50 [1] than those just listed; values first:

DC50 [1] | Dmax [1] | DC50 [2] | SMILES | Dmax (%) [2]
0.94 nM | 88.5% | 1.69 nM | Cc1cc2cc(n1)-c1cnn(C)c1OCCC[C@@H](C)CN1/C(=N/C2=O)Nc2ccc(N3CCC(C(=O)N4CC(Nc5cc(F)c([C@H]6CCC(=O)NC6=O)c(F)c5)C4)CC3)cc21 [Example 404, (R)-3-(2,6-difluoro-4-((1-(1-((R,E)-1^1,2^6,7-trimethyl-3-oxo-5^2,5^3-dihydro-1^1H,5^1H-li-oxa-4-aza-5(2,1)-benzo[d]imidazola-2(2,4)-pyridina-1(4,5)-pyrazolacycloundecaphane-5^4-yl)piperidine-4-carbonyl)azetidin-3-yl)amino)phenyl)piperidine-2,6-dione] | 83.57%
0.915 nM | 89.8% | 0.628 nM | Cc1cc2cc(n1)-c1cnn(C)c1OCCC[C@@H](C)CN1/C(=N/C2=O)Nc2ccc(N3CCN(CCCNc4cc(F)c([C@H]5CCC(=O)NC5=O)c(F)c4)CC3)cc21 [Example 400, (R)-3-(2,6-difluoro-4-((3-(4-((R,E)-1^1,2^6,7-trimethyl-3-oxo-5^2,5^3-dihydro-1^1H,5^1H-11-oxa-4-aza-5(2,1)-benzo[d]imidazola-2(2,4)-pyridina-1(4,5)-pyrazolacycloundecaphane-5^6-yl)piperazin-1-yl)propyl)amino)phenyl)piperidine-2,6-dione] | 79.74%
0.677 nM | 80.5% | 1.26 nM | Cc1cc2cc(n1)-c1cnn(C)c1OCCC[C@@H](C)CN1/C(=N/C2=O)Nc2ccc(N3CCN(CCN(C)c4ccc5c(c4)CN([C@H]4CCC(=O)NC4=O)C5=O)CC3)cc21 [Example 405, (S)-3-(5-(methyl(2-(4-((R,E)-1^1,2^6,7-trimethyl-3-oxo-5^2,5^3-dihydro-1^1H,5^1H-11-oxa-4-aza-5(2,1)-benzo[d]imidazola-2(2,4)-pyridina-1(4,5)-pyrazolacycloundecaphane-5^6-yl)piperazin-1-yl)ethyl)amino)-1-oxoisoindolin-2-yl)piperidine-2,6-dione] | 78.67%
0.633 nM | 88.3% | 0.525 nM | Cc1cc2cc(n1)-c1cnn(C)c1OCCC[C@@H](C)CN1/C(=N/C2=O)Nc2ccc(N3CCC(C(=O)N4CCC(Nc5cc(F)c([C@H]6CCC(=O)NC6=O)c(F)c5)CC4)CC3)cc21 [Example 402, (R)-3-(2,6-difluoro-4-((1-(1-((R,E)-1^1,2^6,7-trimethyl-3-oxo-5^2,53-dihydro-1^1H,5^1H-11-oxa-4-aza-5(2,1)-benzo[d]imidazola-2(2,4)-pyridina-1(4,5)-pyrazolacycloundecaphane-5^6-yl)piperidine-4-carbonyl)piperidin-4-yl)amino)phenyl)piperidine-2,6-dione] | 82.56%
0.622 nM | 83.6% | 0.681 nM | Cc1cc2cc(n1)-c1cnn(C)c1OCCC[C@@H](C)CN1/C(=N/C2=O)Nc2ccc(N3CCN(C4CCN(c5ccc6c(c5)CN([C@H]5CCC(=O)NC5=O)C6=O)CC4)CC3)cc21 [Example 396, (S)-3-(1-oxo-5-(4-(4-((R,E)-1^1,2^6,7-trimethyl-3-oxo-5^2,53-dihydro-1^1H,5^1H-11-oxa-4-aza-5(2,1)-benzo[d]imidazola-2(2,4)-pyridina-1(4,5)-pyrazolacycloundecaphane-5^6-yl)piperazin-1-yl)piperidin-1-yl)isoindolin-2-yl)piperidine-2,6-dione] | 63.49%
0.604 nM | 87.5% | 0.639 nM | Cc1cc2cc(n1)-c1cnn(C)c1OCCC[C@@H](C)CN1/C(=N/C2=O)Nc2ccc(N3CCN(C4CCN(c5cc(F)c([C@H]6CCC(=O)NC6=O)c(F)c5)CC4)[C@@H](CO)C3)cc21 [Example 421, (R)-3-(2,6-difluoro-4-(4-((R)-2-(hydroxymethyl)-4-((R,E)-1^1,2^6,7-trimethyl-3-oxo-5^2,5^3-dihydro-1^1H,5^1H-11-oxa-4-aza-5(2,1)-benzo[d]imidazola-2(2,4)-pyridina-1(4,5)-pyrazolacycloundecaphane-5^6-yl)piperazin-1-yl)piperidin-1-yl)phenyl)piperidine-2,6-dione] | 84.08%
0.517 nM | 60.7% | 3.2 nM | Cc1cc2cc(n1)-c1cnn(C)c1OCCC[C@@H](C)CN1/C(=N/C2=O)Nc2ccc(N3CCN(C4CCN(c5cc(F)c([C@H]6CCC(=O)NC6=O)c(F)c5)CC4)CC34CC4)cc21 [Example 418, (R)-3-(2,6-difluoro-4-(4-(4-((R,E)-1^1,2^6,7-trimethyl-3-oxo-5^2,5^3-dihydro-1^1H,5^1H-11-oxa-4-aza-5(2,1)-benzo[d]imidazola-2(2,4)-pyridina-1(4,5)-pyrazolacycloundecaphane-5^6-yl)-4,7-diazaspiro[2.5]octan-7-yl)piperidin-1-yl)phenyl)piperidine-2,6-dione] | 91.56%
